{"source": "patent US20150125457A1", "about": "“BONE REPAIR PROMOTER” (DAIICHI SANKYO COMPANY, LIMITED, priority 2012, published 2015)", "format_in_all_cases": "in vivo", "key": {"[1]": {"test_system": "rat femur fracture model", "test": "Rat femur fracture model, soft X-ray radiography of femurs", "conditions": "10 or 100 nmol/kg s.c. once per day for 8 weeks; FIG. 1", "experimental": "A fracture model was surgically prepared at the left femoral diaphysis of a 6-week-old female SD strain (Crl: CD) IGS rat. A barbital-based anesthetic agent (Somnopentyl®, Kyoritsu Seiyaku Corporation) was intraperitoneally administered to an animal in order to anesthetize the animal. Isoflurane (Escain, Mylan Inc.) inhalation anesthesia was performed as an adjunct to anesthesia. The skin on the upside of the knee joint was incised, exfoliation was performed between the rectus femoris muscle and the vastus lateralis muscle to expose the femur. At around 0.5 mm distal from the center of the femoral diaphysis, the diaphysis was completely cut in cross-section by a bone cutter (Osada Equipment Co., Ltd.). […] For the resected bone, the bone length, and the callus size in the fracture site were measured, the left and right femurs were subjected to soft X-ray radiography, and then the healing state in the fracture site was determined. […] At 2, 4, and 6 weeks after the administration, one from each of the cases was sampled for follow-up, further the one in the control group, which had shown nonunion-like symptoms, was excluded from the evaluation, and eventually the results were evaluated as a group of 10 rats."}, "[2]": {"test_system": "rat closed femur fracture model", "test": "Rat closed femur fracture model, torsion test of femur strength", "conditions": "4 weeks after fracture", "description": "A 10-week-old male Wistar rat (Charles River Laboratories Japan, Inc.) was anesthetized by isoflurane inhalation (inhalation of 5%, and retention of 2%), and retained in a supine position. The peripheral portion of the left knee was shaved with a clipper, and disinfected with Hibitane. About 2 cm of the skin of the left knee on the upside of the patella was incised. About 5 mm of the joint capsule was incised along with the outer edge of the patella, and then the patella was dislocated inward from the trochlear groove. A 22G injection needle was inserted into the medullary cavity in the center of the trochlear groove, and pulled out. Into the hole, a Kirschner wire (MIZUHO Corporation) having a diameter of 1 mm, which had been cut to 32 mm in advance was fully inserted in the medullary cavity of the femur. The joint capsule and the incised part of the skin were sutured with nylon suture (Alfresa Pharma Corporation). The left hind limb was fixed to an Einhorn type of bone fracture preparation device (special order item), and mechanical stress was added to the femur by dropping a weight from a predetermined position to prepare the bone fracture. Soft X-ray images of the hind limb were taken by using CT for animals (LCT-200, Hitachi Aloka Medical, Ltd.), and as a result it was confirmed that transverse fracture was prepared in the vicinity of the center of the femur. For the infection prevention, potassium penicillin G (Meiji Seika Pharma Co., Ltd.) was administered intramuscularly. CNP derivative A was administered subcutaneously once a day at a dose of 0.42 mg/kg/day for 7 days from one day after the surgery. Vehicle was administered to the control group. 4 weeks after the preparation of the bone fracture, the animal was anesthetized by isoflurane inhalation, retained in a supine position, and then bled for the euthanasia. The left and right femurs were resected, immersed in a physiological saline solution, and cryopreserved in a freezer. The femurs were thawed at a later date, subjected to torsion test using a bone strength meter (MZ-500S, MARUTO INSTRUMENT CO., LTD.), and the strength of the femur was measured. The test was performed in 12 cases in each group."}, "[3]": {"test_system": "rat femur fracture model", "test": "Rat femur fracture model (surgically cut femoral diaphysis), three-point bending bone strength test", "conditions": "for Break deformation / Break energy / Break strength / Maximum load / Stiffness (Δ70%-20%) / Break deformation, left/right ratio / Break energy, left/right ratio / Break strength, left/right ratio / Maximum load, left/right ratio / Stiffness (Δ70%-20%), left/right ratio: mean ± SD, N=10; for Break deformation, left/right ratio / Break energy, left/right ratio / Break strength, left/right ratio / Maximum load, left/right ratio / Stiffness (Δ70%-20%), left/right ratio: ratio of left/right femurs", "experimental": "(§1) A fracture model was surgically prepared at the left femoral diaphysis of a 6-week-old female SD strain (Crl: CD) IGS rat. A barbital-based anesthetic agent (Somnopentyl®, Kyoritsu Seiyaku Corporation) was intraperitoneally administered to an animal in order to anesthetize the animal. Isoflurane (Escain, Mylan Inc.) inhalation anesthesia was performed as an adjunct to anesthesia. The skin on the upside of the knee joint was incised, exfoliation was performed between the rectus femoris muscle and the vastus lateralis muscle to expose the femur. At around 0.5 mm distal from the center of the femoral diaphysis, the diaphysis was completely cut in cross-section by a bone cutter (Osada Equipment Co., Ltd.). After that, an injection needle 21G was inserted into the bone marrow between the greater trochanter and the femur neck of the left femur, and the muscle and the skin were sutured with 2 to 3 stitches. For the prevention of post-operative suppuration, potassium penicillin G for injection (Meiji Seika Kaisha, Limited) was administered as an antibiotic, and the suture site of the skin was disinfected with povidone-iodine (Isodine®, Meiji Seika Kaisha, Limited). As the test substance, CNP derivative A (SEQ ID NO: 13: the SEQ ID NO: 157 of the publication of US patent application US 2010-305031, produced by a method described in the publication) was used for repeated subcutaneous administration at 10 or 100 nmol/kg once per day for 8 weeks. Vehicle was administered to the control group. On the next day after the administration end date, the left and right femurs and the left and right tibiae were resected. For the resected bone, the bone length, and the callus size in the fracture site were measured, the left and right femurs were subjected to soft X-ray radiography, and then the healing state in the fracture site was determined. After that, a three-point bending strength test was performed by using a bone strength measuring device MZ-500S (MARUTO INSTRUMENT CO., LTD.), and a bone strength testing system CTR win Ver. 1.21 (System Supply Co., Ltd.). The bone after finishing the measurements was fixed with 10% neutral buffered formalin, and the pathologic sample was prepared and observed. The administration was performed to a group of 14 rats including spare rats. At 2, 4, and 6 weeks after the administration, one from each of the cases was sampled for follow-up, further the one in the control group, which had shown nonunion-like symptoms, was excluded from the evaluation, and eventually the results were evaluated as a group of 10 rats."}, "[4]": {"test_system": "rat femur fracture model", "test": "Rat femur fracture model, tissue observation in the femur fracture site", "experimental": "as §1"}, "[5]": {"conditions": "10 nmol/kg s.c. once per day for 8 weeks, fractured left femur"}, "[6]": {"conditions": "10 nmol/kg s.c. once per day for 8 weeks"}, "[7]": {"conditions": "10 nmol/kg s.c. once per day for 8 weeks, untreated right femur"}, "[8]": {"conditions": "100 nmol/kg s.c. once per day for 8 weeks, fractured left femur"}, "[9]": {"conditions": "100 nmol/kg s.c. once per day for 8 weeks"}, "[10]": {"conditions": "100 nmol/kg s.c. once per day for 8 weeks, untreated right femur"}, "[11]": {"conditions": "10 nmol/kg, 8-week administration, left femur fracture site, grade 0-5, mean ± SD, N=10"}, "[12]": {"conditions": "100 nmol/kg, 8-week administration, left femur fracture site, grade 0-5, mean ± SD, N=10"}, "[13]": {"conditions": "100 nmol/kg, 8 weeks, compared to the control group"}}, "note": "“And” between values parts separate entries of the source, which are not always exact repeats. Equal values may be shown once.", "data": [{"substance": "CNP derivative A: CNP (1-22) Ghrelin (12-28, E17D): SEQ ID NO: 13; SEQ ID NO: 157 of US 2010-305031 (GLSKGCFGLKLDRIGSMSGLGCVQQRKDSKKPPAKLQPR; Chimeric CNP J (SEQ ID NO157) of US2010-305031 and WO2009/142307, and CNP derivative A of current invention.)", "values": [{"measurement": "Continuity of the cortical bone in soft X-ray images of femurs", "setting": "[1]", "result": "tendency for enhanced continuity of the cortical bone"}, {"measurement": "Remaining fracture line in soft X-ray images of femurs", "setting": "[1]", "result": "decreasing tendency for the fracture line to remain"}, {"measurement": "Share of individuals whose fractured left femur showed the reference value (3 N×mm/deg) or more", "setting": "[2]; 0.42 mg/kg/day s.c. for 7 days, 12 individuals, vehicle 33%", "result": 83, "unit": "%"}, {"measurement": "Number of individuals whose fractured left femur showed the reference value (3 N×mm/deg) or more", "setting": "[2]; 0.42 mg/kg/day s.c. for 7 days, out of 12 individuals", "result": 10, "unit": "individuals"}, {"measurement": "Healing rate of the fracture", "setting": "[2]; 0.42 mg/kg/day s.c. for 7 days, versus vehicle", "result": "significantly improved"}, {"measurement": "Strength of the left femur to which bone fracture had been prepared (torsion test stiffness)", "setting": "[2]; 0.42 mg/kg/day s.c. once a day for 7 days from one day after surgery, 12 cases", "result": "almost the same as that of the untreated right femur"}, {"measurement": "Break deformation", "setting": "[3]; [5]", "result": "1.15 ± 0.58", "unit": "mm"}, {"measurement": "Break energy", "setting": "[3]; [5]", "result": "45.91 ± 26.15", "unit": "N.mm"}, {"measurement": "Break strength", "setting": "[3]; [5]", "result": "72.05 ± 30.40", "unit": "N"}, {"measurement": "Maximum load", "setting": "[3]; [5]", "result": "81.98 ± 34.64", "unit": "N"}, {"measurement": "Stiffness (Δ70%-20%)", "setting": "[3]; [5]", "result": "138.36 ± 89.14", "unit": "N/mm"}, {"measurement": "Break deformation, left/right ratio", "setting": "[3]; [6]", "result": "1.15 ± 0.57"}, {"measurement": "Break energy, left/right ratio", "setting": "[3]; [6]", "result": "0.75 ± 0.33"}, {"measurement": "Break strength, left/right ratio", "setting": "[3]; [6]", "result": "0.80 ± 0.33"}, {"measurement": "Maximum load, left/right ratio", "setting": "[3]; [6]", "result": "0.86 and 0.86 ± 0.35"}, {"measurement": "Stiffness (Δ70%-20%), left/right ratio", "setting": "[3]; [6]", "result": "0.75 ± 0.48"}, {"measurement": "Break deformation", "setting": "[3]; [7]", "result": "0.99 ± 0.15", "unit": "mm"}, {"measurement": "Break energy", "setting": "[3]; [7]", "result": "59.55 ± 12.33", "unit": "N.mm"}, {"measurement": "Break strength", "setting": "[3]; [7]", "result": "89.22 ± 6.58", "unit": "N"}, {"measurement": "Maximum load", "setting": "[3]; [7]", "result": "95.08 ± 5.29", "unit": "N"}, {"measurement": "Stiffness (Δ70%-20%)", "setting": "[3]; [7]", "result": "187.11 ± 32.64", "unit": "N/mm"}, {"measurement": "Break deformation", "setting": "[3]; [8]", "result": "1.04 ± 0.45", "unit": "mm"}, {"measurement": "Break energy", "setting": "[3]; [8]", "result": "53.90 ± 24.24", "unit": "N.mm"}, {"measurement": "Break strength", "setting": "[3]; [8]", "result": "80.02 ± 15.97", "unit": "N"}, {"measurement": "Maximum load", "setting": "[3]; [8]", "result": "87.59 ± 19.00", "unit": "N"}, {"measurement": "Stiffness (Δ70%-20%)", "setting": "[3]; [8]", "result": "162.09 ± 105.67", "unit": "N/mm"}, {"measurement": "Break deformation, left/right ratio", "setting": "[3]; [9]", "result": "1.02 ± 0.38"}, {"measurement": "Break energy, left/right ratio", "setting": "[3]; [9]", "result": "0.90 and 0.90 ± 0.36"}, {"measurement": "Break strength, left/right ratio", "setting": "[3]; [9]", "result": "1.06 ± 0.33"}, {"measurement": "Maximum load, left/right ratio", "setting": "[3]; [9]", "result": "1.03 and 1.03 ± 0.28"}, {"measurement": "Stiffness (Δ70%-20%), left/right ratio", "setting": "[3]; [9]", "result": "0.85 ± 0.64"}, {"measurement": "Break deformation", "setting": "[3]; [10]", "result": "1.01 ± 0.17", "unit": "mm"}, {"measurement": "Break energy", "setting": "[3]; [10]", "result": "60.82 ± 13.73", "unit": "N.mm"}, {"measurement": "Break strength", "setting": "[3]; [10]", "result": "77.75 ± 10.46", "unit": "N"}, {"measurement": "Maximum load", "setting": "[3]; [10]", "result": "86.89 ± 10.96", "unit": "N"}, {"measurement": "Stiffness (Δ70%-20%)", "setting": "[3]; [10]", "result": "200.64 ± 43.22", "unit": "N/mm"}, {"measurement": "Break energy in a fracture site of the left femur, dose dependence", "setting": "[3]; 10 and 100 nmol/kg s.c. once per day for 8 weeks, versus vehicle", "result": "increased CNP derivative A-dose dependently"}, {"measurement": "Callus Amount", "setting": "[4]; [11]", "result": "2.1 ± 1.0", "unit": "Grade"}, {"measurement": "Callus Cartilage", "setting": "[4]; [11]", "result": "1.5 ± 2.0", "unit": "Grade"}, {"measurement": "Callus Continuity", "setting": "[4]; [11]", "result": "3.2 ± 2.1", "unit": "Grade"}, {"measurement": "Cortical bone/bone marrow areas Cancellous bone", "setting": "[4]; [11]", "result": "2.9 ± 1.7", "unit": "Grade"}, {"measurement": "Cortical bone/bone marrow areas Cartilage", "setting": "[4]; [11]", "result": "0.9 ± 1.7", "unit": "Grade"}, {"measurement": "Cortical bone/bone marrow areas Connective tissue", "setting": "[4]; [11]", "result": "0.7 ± 1.6", "unit": "Grade"}, {"measurement": "Cortical bone/bone marrow areas Osteoclasts", "setting": "[4]; [11]", "result": "0.6 ± 1.1", "unit": "Grade"}, {"measurement": "Callus Amount", "setting": "[4]; [12]", "result": "2.3 ± 1.2", "unit": "Grade"}, {"measurement": "Cortical bone/bone marrow areas Cancellous bone", "setting": "[4]; [12]", "result": "3.0 ± 1.1", "unit": "Grade"}, {"measurement": "Cortical bone/bone marrow areas Continuity", "setting": "[4]; [12]", "result": "2.7 ± 1.8", "unit": "Grade"}, {"measurement": "Grade of cartilage formation", "setting": "[4]; [13]", "result": "tendency for a decreasing grade of cartilage formation"}, {"measurement": "Grade of ossification of the callus", "setting": "[4]; [13]", "result": "tendency for an increasing grade of ossification of the callus"}, {"measurement": "Repair of the bone cut region", "setting": "[4]; overall conclusion of tissue observation, 8 weeks after fracture", "result": "promoted"}]}]}
